Laboratory results as given in the NIST ThermoML archive (doi:10.1016/j.jct.2015.09.022).

Assays:
[1] = 100.7 kPa, Liquid; for viscosity: Falling or rolling sphere viscometry; for speed of sound: Frequency=3 MHz, Sing-around technique in a fixed-path interferometer; for mass density: Vibrating tube method
[2] = xn = mol fraction of the nth substance listed; details: 100.7 kPa, Liquid; for viscosity: Falling or rolling sphere viscometry; for speed of sound: Frequency=3 MHz, Sing-around technique in a fixed-path interferometer; for mass density: Vibrating tube method

CCCCOC(C)=O [butyl ethanoate]
[1]
Details	viscosity [mPa·s]
298.15 K	0.67
303.15 K	0.64
308.15 K	0.58
313.15 K	0.57
318.15 K	0.53
323.15 K	0.5

CCCC[n+]1ccn(C)c1.O=S(=O)([N-]S(=O)(=O)C(F)(F)F)C(F)(F)F + CCCC=O
[2], x1 = 1
Details	mass density [kg/m3]	speed of sound [m/s]	viscosity [mPa·s]
298.15 K	1436.82	1227.8	50.04
303.15 K	1431.98	1217.5	40.72
308.15 K	1427.16	1205.2	33.73
313.15 K	1422.37	1194.4	28.28
318.15 K	1417.6	1184.5	24.01
323.15 K	1412.86	1171.3	20.32

CCCC[n+]1ccn(C)c1.O=S(=O)([N-]S(=O)(=O)C(F)(F)F)C(F)(F)F + CCCCN
[2], x1 = 1
Details	mass density [kg/m3]	speed of sound [m/s]	viscosity [mPa·s]
298.15 K	1436.82	1227.8	50.04
303.15 K	1431.98	1217.5	40.72
308.15 K	1427.16	1205.2	33.73
313.15 K	1422.37	1194.4	28.28
318.15 K	1417.6	1184.5	24.01
323.15 K	1412.86	1171.3	20.32

CCCC=O [butanal]
[1]
Details	mass density [kg/m3]	speed of sound [m/s]	viscosity [mPa·s]
298.15 K	796.99	1193.8	0.43
303.15 K	791.8	1172.7	0.4
308.15 K	786.41	1151.6	0.39
313.15 K	781.37	1130.6	0.36
318.15 K	776.39	1109.6	0.35
323.15 K	771.3	1088.8	0.32

CCCC[n+]1ccn(C)c1.O=S(=O)([N-]S(=O)(=O)C(F)(F)F)C(F)(F)F
[1]
Details	mass density [kg/m3]	speed of sound [m/s]	viscosity [mPa·s]
298.15 K	1436.82	1227.8	50.04
303.15 K	1431.98	1217.5	40.72
308.15 K	1427.16	1205.2	33.73
313.15 K	1422.37	1194.4	28.28
318.15 K	1417.6	1184.5	24.01
323.15 K	1412.86	1171.3	20.32

CCCCN [1-butanamine]
[1]
Details	mass density [kg/m3]	speed of sound [m/s]	viscosity [mPa·s]
298.15 K	733.33	1246.5	0.47
303.15 K	728.5	1223.9	0.44
308.15 K	723.67	1201.3	0.41
313.15 K	718.66	1178.7	0.39
318.15 K	714.1	1156.2	0.37
323.15 K	709.21	1133.5	0.35

CCCCOC(C)=O [butyl ethanoate] + CCCC[n+]1ccn(C)c1.O=S(=O)([N-]S(=O)(=O)C(F)(F)F)C(F)(F)F
[2], x2 = 0
Details	mass density [kg/m3]	speed of sound [m/s]	viscosity [mPa·s]
298.15 K	876	1190.5	0.67
303.15 K	870.86	1169.8	0.64
308.15 K	865.69	1149.2	0.58
313.15 K	860.49	1128.8	0.57
318.15 K	855.28	1108.5	0.53
323.15 K	850.03	1088.3	0.5
